Here are results for 44 compounds from patent US7208505B2, “β3 adrenergic agonists” (Eli Lilly and Company, priority 2001, dated 2007).

Each structure is given as a SMILES string.

In one test the target is T1, human β3 adrenergic receptor (Homo sapiens, UniProt P13945).
T1 construct: expressed in transfected cells
T1 sequence (P13945 whole entry): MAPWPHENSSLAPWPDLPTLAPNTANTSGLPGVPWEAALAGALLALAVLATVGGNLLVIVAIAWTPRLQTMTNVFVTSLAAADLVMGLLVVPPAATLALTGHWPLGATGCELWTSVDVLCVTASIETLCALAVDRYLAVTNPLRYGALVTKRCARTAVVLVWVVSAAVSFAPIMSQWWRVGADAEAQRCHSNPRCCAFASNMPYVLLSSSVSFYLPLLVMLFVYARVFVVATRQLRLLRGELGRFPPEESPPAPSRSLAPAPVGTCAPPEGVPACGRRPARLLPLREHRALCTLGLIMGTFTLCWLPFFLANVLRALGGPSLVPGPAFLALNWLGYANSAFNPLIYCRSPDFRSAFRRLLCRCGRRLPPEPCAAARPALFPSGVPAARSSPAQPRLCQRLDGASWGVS
The experiment in a line: whole cell receptor coupled c-AMP assay (Emax relative to isoproterenol). The format is cell-based. The following applies: % intrinsic activity: maximal response divided by isoproterenol maximal response times 100; transfected CHO cells; average of at least 3 runs. An excerpt:
The genes encoding the human β1-adrenergic receptor (Frielle et al., Proc. Natl. Acad. Sci., 84:7920–7924, 1987), the human β2-adrenergic receptor (Kobika et al., Proc. Natl. Acad. Sci., 84:46–50, 1987, Emorine et al., Proc. Natl. Acad. Sci., 84:6995–6999, 1987) and the human β3 adrenergic receptor (Granneman et al., Molecular Pharmacology, 44(2):264–70, 1993) are individually subcloned into a phd expression vector (Grinnell et al., Bio/Technology, 5:1189–1192, 1987) and transfected into the DXB-11 Chinese hamster ovary (CHO) cell line by calcium phosphate precipitation methodology. The stably transfected cells are grown to 95% confluency in 95% Dulbecco's modified Eagles Medium (DMEM), 5% fetal bovine serum and 0.01% proline. Media is removed and the cells are washed with phosphate buffered (pH 7.4) saline (without magnesium and calcium). Cells are then lifted using an enzyme free cell dissociation solution (Specialty Media, Lavallette, N.J.) and pelleted by centrifugation.
Cells from each of the above cell lines are resuspended and added (20,000/well) to a 96-well plate. Cells are incubated at 37° C. with representative compounds of the invention for 20 minutes in buffer (Hank's balanced salt solution, 10 mM HEPES, 0.1% BSA, 1 mM L-ascorbic acid, 0.2% dimethyl sulfoxide, 1 mM 3-isobutyl-1-methylxanthine, pH 7.4). After halting the incubation with quench buffer (50 mM Na Acetate, 0.25% Triton X-100, pH 5.8), the c-AMP level is quantified by scintillation proximity assay (SPA) using a modification of the commercially available c-AMP kit (Amersham, Arlington Heights, Ill.) with rabbit anti-cAMP antibody (ICN Biomedicals, Aurora, Ohio) for the kit.
Sigmoidal dose response curves, from the whole cell receptor coupled c-AMP assay are fit to a four parameter logistic equation using non linear regression: y=(a−d)/(1+(Dose/c)^b)+d where a and d are responses at zero and maximal dose, b is the slope factor and c is the EC50 as previously described (DeLean et al., Am. J. Physiol., 235, E97-E102, 1978). EC50 is assessed as the concentration producing 50% of the maximum response to each agonist.
Isoproterenol is accepted in the art as a non-selective β3 agonist and is widely used as a comparator in evaluating the activity of compounds. See Trends in Pharm. Sci., 15:3, 1994. The % intrinsic activity (Emax) of representative compounds of the invention is assessed relative to isoproterenol by the compound's maximal response divided by the isoproterenol maximal response times 100.
Regarding `CC(C)(Cc1c[nH]c2ccccc12)NC[C@H](O)COc1ccccc1-c1ccc(C#N)s1.Cl` [Example 11], the “Emax (%) ± SEM” value stood at 69.0 ± 2.3%.

In the case of `CC(C)(Cc1c[nH]c2ccccc12)NC[C@H](O)COc1ccccc1-c1cnco1` [Example 34], the “Emax (%) ± SEM” value amounted to 64.5 ± 2.1%.

Regarding `CC(C)(Cc1c[nH]c2c(C=Cn3ccnc3)cccc12)NC[C@H](O)COc1ccccc1-c1cccs1` [Example 186], the “Emax (%) ± SEM” value was determined as 66.5 ± 0.4%.

As for `CC(C)(Cc1c[nH]c2cc(C(=O)O)ccc12)NC[C@H](O)COc1ccccc1-c1ccc(S(N)(=O)=O)s1` [Example 55], the “Emax (%) ± SEM” value is reported as 78.4 ± 0.2%.

Consider `COC(=O)c1ccc(-c2cccc3c(CC(C)(C)NC[C@H](O)COc4ccccc4-c4cccs4)c[nH]c23)cc1` [Example 43], for which the “Emax (%) ± SEM” value worked out at 66.6 ± 3.1%.

For the compound `CC(C)(Cc1c[nH]c2ccccc12)NC[C@H](O)COc1ccc(F)cc1-c1ccon1` [Example 80], the “Emax (%) ± SEM” value is reported as 43.4 ± 2.0%.

As to `CC(C)(Cc1c[nH]c2c(OCCNS(C)(=O)=O)cccc12)NC[C@H](O)COc1ccccc1-c1cccs1` [Example 177], the “Emax (%) ± SEM” value turned out to be 73.8 ± 1.5%.

As to `COC(=O)c1ccc(-c2cccc3c(CC(C)(C)NC[C@H](O)COc4ccccc4-c4ccon4)c[nH]c23)cc1` [Example 44], the “Emax (%) ± SEM” value worked out at 38.5 ± 2.3%.

Take `CC(C)(Cc1c[nH]c2c(NS(C)(=O)=O)cccc12)NC[C@H](O)COc1ccccc1-c1ccc(S(N)(=O)=O)s1` [Example 30]: the “Emax (%) ± SEM” value was determined as 90.0 ± 6.6%.

Take `CC(C)(Cc1c[nH]c2c(C=Cn3cncn3)cccc12)NCC(O)COc1ccccc1-c1cccs1` (centres unmarked) [Example 146]: the “Emax (%) ± SEM” value was 47.3 ± 2.3%.

Take `CC(C)(Cc1c[nH]c2c(OCC(=O)O)cccc12)NC[C@H](O)COc1ccccc1-c1cccs1.Cl` [Example 226]: the “Emax (%) ± SEM” value is reported as 70.3 ± 5.7%.

With `CC(C)(Cc1c[nH]c2ccc(F)cc12)NC[C@H](O)COc1ccccc1-c1ccon1` [Example 167], the “Emax (%) ± SEM” value is 40.8 ± 1.3%.

Turning to `CC(C)(Cc1c[nH]c2c(OCC#N)cccc12)NC[C@H](O)COc1ccccc1-c1nncs1` [Example 160], the “Emax (%) ± SEM” value was found to be 44.3 ± 3.9%.

For `CC(C)(Cc1c[nH]c2ccccc12)NC[C@H](O)COc1cccnc1-c1cccs1` [Example 125], the “Emax (%) ± SEM” value amounted to 59.2 ± 2.2%.

For the compound `CC(C)(Cc1c[nH]c2c(OCC#N)cccc12)NC[C@H](O)COc1ccccc1-c1ccc(C#N)s1.O=C(O)C(F)(F)F` [Example 12], the “Emax (%) ± SEM” value was found to be 77.7 ± 4.6%.

On to `Cc1csc(-c2ccccc2OC[C@@H](O)CNC(C)(C)Cc2c[nH]c3c(OCC#N)cccc23)c1.O=C(O)C(F)(F)F` [Example 22], for which the “Emax (%) ± SEM” value is 66.0 ± 0.9%.

As for `CC(C)(Cc1c[nH]c2cc(C=CC#N)ccc12)NC[C@H](O)COc1ccccc1-c1cccs1` [Example 190], the “Emax (%) ± SEM” value came out at 69.3 ± 1.3%.

Take `CC(C)(Cc1c[nH]c2c(C=CS(C)(=O)=O)cccc12)NCC(O)COc1ccccc1-c1cccs1` (centres unmarked) [Example 141]: the “Emax (%) ± SEM” value was 65.0 ± 2.0%.

Take `CC(C)(Cc1c[nH]c2ccccc12)NC[C@H](O)COc1ccccc1-c1nccs1` [Example 68]: the “Emax (%) ± SEM” value is given as 53.2 ± 1.6%.

With `CC(C)(Cc1c[nH]c2c(-c3ccc(C(F)(F)F)cc3C(F)(F)F)cccc12)NC[C@H](O)COc1ccccc1-c1cccs1` [Example 110], the “Emax (%) ± SEM” value came to 72.7 ± 5.3%.

For the compound `Cc1cc(-c2ccccc2OC[C@@H](O)CNC(C)(C)Cc2c[nH]c3ccccc23)on1` [Example 36], the “Emax (%) ± SEM” value was 63.9 ± 1.6%.

Consider `Cc1csc(-c2ccccc2OC[C@@H](O)CNC(C)(C)Cc2c[nH]c3ccccc23)c1.O=C(O)C(F)(F)F` [Example 21], for which the “Emax (%) ± SEM” value was determined as 61.3 ± 3.2%.

As for `CC(C)(Cc1c[nH]c2c(C(N)=O)cccc12)NC[C@H](O)COc1ccccc1-c1cccs1` [Example 174], the “Emax (%) ± SEM” value turned out to be 57.6 ± 0.6%.

As for `COC(=O)c1cccc2c1ccn2C[C@@H](C)NC[C@H](O)COc1ccccc1-c1cccs1` [Example 153], the “Emax (%) ± SEM” value stood at 45.2 ± 8.4%.

For the compound `CC(C)(Cc1c[nH]c2cc(F)ccc12)NC[C@H](O)COc1ccccc1-c1ccon1` [Example 172], the “Emax (%) ± SEM” value stood at 55.0 ± 1.1%.

For the compound `CC(C)(Cc1c[nH]c2cc(C(=O)O)ccc12)NC[C@H](O)COc1ccccc1-c1ccc(C#N)s1` [Example 96], the “Emax (%) ± SEM” value was 74.1 ± 2.4%.

Regarding `CC(C)(Cc1c[nH]c2c(-c3ccc(C(F)(F)F)cc3)cccc12)NC[C@H](O)COc1ccccc1-c1ccon1` [Example 105], the “Emax (%) ± SEM” value turned out to be 69.1 ± 3.8%.

Regarding `CC(C)(Cc1c[nH]c2c(F)cccc12)NC[C@H](O)COc1ccccc1-c1nccs1` [Example 171], the “Emax (%) ± SEM” value is given as 56.0 ± 1.5%.

`CC(C)(Cc1c[nH]c2c(-c3cccc(C(F)(F)F)c3)cccc12)NC[C@H](O)COc1ccccc1-n1cccc1` [Example 39]: the “Emax (%) ± SEM” value stood at 71.7 ± 3.0%.

Turning to `CC(Cc1cn(C)c2c(F)cc(F)cc12)NCC(O)COc1ccccc1-c1cccs1` (centres unmarked) [Example 197], the “Emax (%) ± SEM” value came to 34.5 ± 4.2%.

`COC(=O)c1ccc(-c2cccc3c(CC(C)(C)NC[C@H](O)COc4ccccc4-n4cccc4)c[nH]c23)cc1` [Example 45]: the “Emax (%) ± SEM” value is reported as 41.9 ± 4.5%.

`CC(C)(Cc1c[nH]c2ccc(F)cc12)NC[C@H](O)COc1ccccc1-c1cccs1` [Example 163]: the “Emax (%) ± SEM” value turned out to be 57.1 ± 5.8%.

With `CC(C)(Cc1c[nH]c2c(CCC(N)=O)cccc12)NC[C@H](O)COc1ccccc1-c1cccs1` [Example 140], the “Emax (%) ± SEM” value worked out at 83.5 ± 2.7%.

Consider `CCOC(=O)c1cccc(-c2cccc3c(CC(C)(C)NC[C@H](O)COc4ccccc4-n4cccc4)c[nH]c23)c1` [Example 42], for which the “Emax (%) ± SEM” value is given as 61.0 ± 4.5%.

For `CC(C)(Cc1c[nH]c2c(-c3ccsc3)cccc12)NC[C@H](O)COc1ccccc1-c1cccs1` [Example 106], the “Emax (%) ± SEM” value was determined as 78.0 ± 8.5%.

Staying with this test, now noted: CHO, % intrinsic activity: maximal response divided by isoproterenol maximal response times 100; transfected CHO cells; average of at least 3 runs.
In turn, `CC(C)(Cc1c[nH]c2c(-c3cccc(C(=O)O)c3)cccc12)NC[C@H](O)COc1ccccc1-c1ccon1` [Example 249] showed an Emax of 68.8 ± 7.8%.

Compound `CC(C)(Cc1c[nH]c2cccc(C(N)=O)c12)NC[C@H](O)COc1ccccc1-c1cccs1` [Example 257] returned an Emax of 81.8 ± 8.5%.

`CC(C)(Cc1c[nH]c2c(CCc3cnccn3)cccc12)NC[C@H](O)COc1ccccc1-c1cccs1` [Example 253] displayed a maximal response (Emax) of 81.6 ± 4%.

For the compound `CC(C)(Cc1c[nH]c2c(-c3ccc(C(=O)O)cc3)cccc12)NC[C@H](O)COc1ccccc1-c1cccs1` [Example 246], the maximal effect (Emax) came to 79.2 ± 3.4%.

`CC(C)(Cc1c[nH]c2c(CCc3ccc(C(N)=O)cc3)cccc12)NC[C@H](O)COc1ccccc1-c1cccs1` [Example 220]: the maximal effect (Emax) worked out at 81.2 ± 0.6%.

`CC(C)(Cc1c[nH]c2c(OCc3nnn[nH]3)cccc12)NC[C@H](O)COc1ccccc1-c1cccs1` [Example 229] yielded an Emax of 83 ± 2.5%.

`C[C@H](Cn1ccc2c(C(=O)O)cccc21)NC[C@H](O)COc1ccccc1-c1cccs1` [Example 242] registered an Emax of 59.6 ± 2.8%.

In the case of `CC(C)(Cc1c[nH]c2ccccc12)NC[C@H](O)COc1ccccc1-c1ccc(C(=O)O)s1` [Example 221], the Emax stood at 74.6 ± 3.6%.

In the case of `CC(C)(Cc1c[nH]c2ccc(C(=O)O)cc12)NC[C@H](O)COc1ccccc1-c1cccs1` [Example 239], the Emax came out at 69.6 ± 3.5%.
